Where two headings read alike, the source gives them in different places.
Experiments:
[1] = test system: endometrial cancer; experiment: Tumour response according to RECIST v1.1, expansion phase, endometrial cancer; format: in vivo, human; conditions: expansion Endometrial cancer (n = 18)
Text: Patients could be considered for enrolment in one of three disease-specific cohorts: (1) advanced or recurrent endometrial adenocarcinoma with disease progression following ≥1 prior chemotherapy regimen; (2) advanced/metastatic urothelial cancer (carcinoma of the bladder, ureter and/or renal pelvis), progressive after ≥1 prior therapy in the metastatic/unresectable setting; (3) advanced RCC after failure of ≥1 prior antivascular endothelial growth factor therapy with no prior TORC1 inhibitor therapy, or progressed on treatment with TORC1 inhibitor therapy.

[2] = parameters: method as in PMID 26800393; conditions: advanced haematological malignancies, cited from earlier work
[3] = Plasma pharmacokinetics (LC-MS/MS); format: in vivo, human; conditions: for Cmax / AUC(0-t) / half-life / Tmax: human, plasma, oral; for half-life: read-out: t½ (converted); for Tmax: read-out: Tmax, median
Experimental: Peripheral blood was collected serially to quantify plasma levels of sapanisertib for PK analysis via validated liquid chromatography tandem mass spectrometry with an assay range of 1–1000 ng/mL (MicroConstants, San Diego, CA), during both dose-escalation and expansion phases. Blood samples were collected before each dose and 0.5, 1, 2, 4, 8 and 24 h after dosing on cycle 1, day 1 and cycle 2, day 1, in the dose-escalation phase. In the expansion phase, samples were collected predose and 2, 4 and 6 h postdose on cycle 1, day 1, and then predose and 2 h postdose on day 8, 15 or 22 of cycle 1.

[4] = 6 mg, cycle 2, day 1, QDx3dQW 6 mg
[5] = 7 mg, cycle 2, day 1, QDx5dQW 7 mg

In the case of `CC(C)n1nc(-c2ccc3oc(N)nc3c2)c2c(N)ncnc21` [Sapanisertib], the “Best overall response CR” value [1] is reported as 0 n (%), the “Best overall response PD” value [1] is reported as 8 (44) n (%) and the “Best overall response PR” value [1] is reported as 1 (6) n (%). For the same compound, the “Best overall response SD < 6 months” value [1] was 8 (44) n (%), the “Best overall response SD ≥ 6 months” value [1] was 0 n (%) and the “CBR (CR + PR + SD ≥ 6 months)” value [1] was 1 (6) n (%). The “ORR (CR + PR)” value [1] was 1 (6) n (%), the MTD ([2]; QD dosing) was 4 mg and the MTD ([2]; QD × 3dQW) was 9 mg. The “Plasma accumulation with repeat dosing” value ([3]; any of the schedules) was “did not accumulate in plasma to any appreciable extent”, the “Tmax, median” value ([3]; cycle 1, day 1, 2 mg) was 2.0 h and the “Tmax, median” value ([3]; cycle 1, day 1, 4 mg) was 2.0 h. For the same compound, the “AUC0–last [%CV]” value ([3]; cycle 1, day 1, 6 mg) was 124.3 (NA) ng*h/mL, the t½ ([3]; cycle 1, day 1, 6 mg) was 6.8 h and the “Tmax, median” value ([3]; cycle 1, day 1, 7 mg) was 1.5 h. For the same compound, the “Tmax, median” value ([3]; cycle 1, day 1, 9 mg) was 1.1 h, the “Tmax, median” value ([3]; cycle 1, day 1, 12 mg) was 2.0 h and the “Tmax, median” value ([3]; cycle 1, day 1, 15 mg) was 2.0 h. For the same compound, the “AUC0–last [%CV]” value ([3]; cycle 1, day 1, 16 mg) was 124.9 (NA) ng*h/mL, the “Tmax, median” value ([3]; cycle 2, day 1, QD 2 mg) was 2.0 h and the “Tmax, median” value ([3]; cycle 2, day 1, QD 6 mg) was 2.0 h. The t½ ([3]; cycle 2, day 1, QDx3dQW 6 mg) was 9.1 (NA) h, the t½ ([3]; cycle 2, day 1, QDx3dQW 16 mg) was 6.6 (2.29) h and the “Tmax, median” value ([3]; cycle 2, day 1, QDx5dQW 10 mg) was 2.0 h. For the same compound, the “Tmax, median” value ([3]; cycle 2, day 1, QDx5dQW 13 mg) was 2.0 h, the “Cmax [%CV]” value ([3]; cycle 2, day 1, QW 7 mg) was 65.8 (NA) ng/mL and the “Tmax, median” value ([3]; cycle 2, day 1, QW 7 mg) was 1 h. For the same compound, the “Cmax [%CV]” value ([3]; cycle 2, day 1, QW 10 mg) was 36.2 (NA) ng/mL, the “Tmax, median” value ([3]; cycle 2, day 1, QW 15 mg) was 2.0 h and the “Tmax, median” value ([3]; cycle 2, day 1, QW 40 mg) was 2.0 h. For the same compound, the Cmax ([3]; 2 mg, cycle 1, day 1, 2 mg) was 13.5 ng/mL, the AUC(0-t) ([3]; 2 mg, cycle 1, day 1, 2 mg, read-out: AUC0–last [%CV]) was 65.4 ng·h/mL and the Cmax ([3]; 2 mg, cycle 2, day 1, QD 2 mg) was 15.6 ng/mL. It also gave an AUC(0-t) ([3]; 2 mg, cycle 2, day 1, QD 2 mg, read-out: AUC0–24h [%CV]) of 185 ng·h/mL, a half-life ([3]; 2 mg, cycle 2, day 1, QD 2 mg) of 8.1 h and a Cmax ([3]; 4 mg, cycle 1, day 1, 4 mg) of 19.1 ng/mL. The AUC(0-t) ([3]; 4 mg, cycle 1, day 1, 4 mg, read-out: AUC0–24h [%CV]) was 178 ng·h/mL, the AUC(0-t) ([3]; 4 mg, cycle 1, day 1, 4 mg, read-out: AUC0–last [%CV]) was 63.2 ng·h/mL and the half-life ([3]; 4 mg, cycle 1, day 1, 4 mg) was 7.1 h. The Cmax ([3]; 4 mg, cycle 2, day 1, QD 4 mg) was 20.3 ng/mL, the AUC(0-t) ([3]; 4 mg, cycle 2, day 1, QD 4 mg, read-out: AUC0–24h [%CV]) was 281 ng·h/mL and the AUC(0-t) ([3]; 4 mg, cycle 2, day 1, QD 4 mg, read-out: AUC0–last [%CV]) was 61.9 ng·h/mL. It also gave a Tmax ([3]; 4 mg, cycle 2, day 1, QD 4 mg) of 3.8 h, a half-life ([3]; 4 mg, cycle 2, day 1, QD 4 mg) of 10.3 h and a Cmax ([3]; 6 mg, cycle 1, day 1, 6 mg) of 50.8 ng/mL. For the same compound, the AUC(0-t) ([3]; 6 mg, cycle 1, day 1, 6 mg, read-out: AUC0–24h [%CV]) was 354 ng·h/mL, the Cmax ([3]; 6 mg, cycle 2, day 1, QD 6 mg) was 36.9 ng/mL and the AUC(0-t) ([3]; 6 mg, cycle 2, day 1, QD 6 mg, read-out: AUC0–24h [%CV]) was 327 ng·h/mL. It also gave a half-life ([3]; 6 mg, cycle 2, day 1, QD 6 mg) of 7.3 h, a Cmax [3, 4] of 59.2 ng/mL and an AUC(0-t) ([3]; 6 mg, cycle 2, day 1, QDx3dQW 6 mg, read-out: AUC0–24h [%CV]) of 777 ng·h/mL. The Tmax [3, 4] was 4 h, the Cmax ([3]; 7 mg, cycle 1, day 1, 7 mg) was 46.7 ng/mL and the AUC(0-t) ([3]; 7 mg, cycle 1, day 1, 7 mg, read-out: AUC0–24h [%CV]) was 327 ng·h/mL. For the same compound, the half-life ([3]; 7 mg, cycle 1, day 1, 7 mg) was 6.9 h, the Cmax ([3]; 7 mg, cycle 2, day 1, QD 7 mg) was 51.3 ng/mL and the AUC(0-t) ([3]; 7 mg, cycle 2, day 1, QD 7 mg, read-out: AUC0–24h [%CV]) was 351 ng·h/mL. It also gave a Tmax ([3]; 7 mg, cycle 2, day 1, QD 7 mg) of 4 h, a half-life ([3]; 7 mg, cycle 2, day 1, QD 7 mg) of 5.63 h and a Cmax [3, 5] of 49.7 ng/mL. It also gave an AUC(0-t) ([3]; 7 mg, cycle 2, day 1, QDx5dQW 7 mg, read-out: AUC0–24h [%CV]) of 362 ng·h/mL and a half-life [3, 5] of 6.7 h.

Source: paper PMC7686313, “Phase 1 study of mTORC1/2 inhibitor sapanisertib (TAK-228) in advanced solid tumours, with an expansion phase in renal, endometrial or bladder cancer” (British Journal of Cancer, 2020)
